According to patent publication US20110257186A1, “COMPOSITIONS AND METHODS FOR TREATING VISUAL DISORDERS” (priority 2010, published 2011):
“Also recorded” adds a separate entry of the source.

Test system: rat visual cortex
Test: LTP in visual cortex slice
Settings: rat primary visual cortex brain slices; fEPSP amplitude after theta burst stimulation; drug infused 20 minutes before LTP induction
Excerpt: The effect of the Ampakine, i.e. benzo[1,2,5]oxadiazol-5-yl-piperidin-1-yl-methanone, in the visual cortex was investigated using brain slices prepared from primary visual cortex to determine if this compound facilitates the induction of long-term potentiation (LTP). LTP is a well established cellular model for synaptic plasticity and the encoding of information. The visual cortex is one synapse removed from the eye and integrates visual signals generated by the retina. It is thus essential for decoding, processing and transforming visual inputs originating in the eye, and proper visual cortical function is necessary for normal vision.
Following decapitation of the anesthetized rat, the brain was rapidly removed and immersed in ice-cold artificial cerebrospinal fluid (ACSF) containing (in mM) NaCl 124, KCl 3, KH2PO4 1.25, CaCl2 3.4, MgSO4 2.5, NaHCO3 26, and D-glucose 10. A block of visual cortex was created by removing the frontal ⅔ portion of the brain and the cerebellum. […] This is repeated 2 additional times with a 1 minute inter-train interval, and the level of LTP was recorded for at least 30 min. Changes in amplitude of the synaptic response were used to measure the extent of LTP, since the amplitude was determined to be the more consistent parameter than the slope of the response. […] LTP was recorded for at least 30 min after induction.

SMILES: O=C(c1ccc2nonc2c1)N1CCCCC1 [benzo[1,2,5]oxadiazol-5-yl-piperidin-1-yl-methanone]
- enhancement of visual cortex long-term potentiation (LTP): dose-dependent facilitation of long-term potentiation in rat visual cortex; also recorded: marked and dose-dependent enhancement of visual cortex LTP
